The text below walks through data of US7429596B2, “1H-pyrrolo [2,3-D] pyrimidine derivatives and methods of use thereof” (The Regents of the University of California, priority 2003, dated 2008).

The subject of data set [1] is A549 lung carcinoma cells. Conditions: human, 2 days, 0.4 μM.
Data set [2] concerns the target T1, carbonyl reductase 1 (CBR1) (Homo sapiens, UniProt P16152).
T1 sequence (P16152 1-277): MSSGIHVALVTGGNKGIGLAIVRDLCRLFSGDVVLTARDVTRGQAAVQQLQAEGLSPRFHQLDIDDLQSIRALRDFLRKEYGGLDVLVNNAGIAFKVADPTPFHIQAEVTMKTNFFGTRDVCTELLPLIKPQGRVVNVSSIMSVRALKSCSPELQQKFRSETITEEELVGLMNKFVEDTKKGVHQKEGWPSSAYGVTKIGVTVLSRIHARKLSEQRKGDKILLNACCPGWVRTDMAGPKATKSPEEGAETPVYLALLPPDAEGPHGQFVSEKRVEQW
In words: Production of daunorubicinol from daunorubicin.
From the text: To independently confirm the ability of AB129 to inhibit CBR1 in A549 cells, an assay based on the role of CBR1 in attenuating the anti-cancer action of daunorubicin was employed.

In data set [3] the target is T2, N90V mutant of carbonyl reductase 1 (CBR1) (Homo sapiens, UniProt P16152, N90V).
T2 construct: made in house
T2 sequence (P16152 1-277 N90V): T1 sequence (P16152 1-277) with N90V
In words: Sensitivity of N90V mutant CBR1 to inhibitor. Conditions: FIG. 30. It counts as biochemical. From the text:
To understand the basis for the potency of AB129 against CBR1, a computer algorithm was used for molecular docking of AB129 to an available crystal structure of porcine CBR1 to produce a model of the bound structure of AB129 (FIG. 24). This modeled co-structure was experimentally validated by site-directed mutagenesis of multiple amino acids in the proposed AB129 binding pocket (including a conserved Asn residue common to all SDR family members—FIGS. 25-27) and identification of AB129 resistant mutants of CBR1 (FIGS. 28-30). This binding model also potentially explains the importance of the hydroxyl moiety attached to the phenyl ring of AB129, as being critical for a H-bonding interaction with an active site Asn.

Data set [4] concerns A549 lung carcinoma cells. Briefly: Cell cycle of A549 cells.
The next data set deals with c-Fyn-wt (Homo sapiens, UniProt P06241). In words: Inhibition of Src family kinase Fyn. In kind it is biochemical. Here is the method:
Experiments were performed to determine whether AB129 was capable of inhibiting the Src family kinase, Fyn. […] Such a compound would serve as a test compound for determining the importance of dual inhibition of CBR1 and protein kinases.

Data set [5] addresses T1, carbonyl reductase 1 (CBR1). In words: CBR1 inhibition: menadione reduction, NADPH absorbance at 340 nm. In kind it is biochemical. On the set-up: 6-His (N); made in house; host or cells: E. coli. As to the method:
CBR was expressed in E. coli and purified using glutathione beads; CBR has a naturally occurring. glutathione binding site. An N-terminal 6-His tagged protein was prepared to allow purification by metal affinity. Our CBR assay employs the synthetic substrate Menadione (2-methyl-1,4-naphthoquinone). Reaction progress is monitored by the decrease in NADPH-absorbance at 340 nm. Saturating concentrations of Menadione with variable concentrations of NADPH are employed in order to ascertain KI values.

In data set [6] the test system is A549 lung carcinoma cells. In words: A549 cell killing / viability.
A further data set is described as follows: i.v. serum half-life. It counts as in vivo. As to conditions: iv, read-out: i.v. serum half-life (t1/2). The source says: The data obtained from these cell culture assays and animal studies can be used in formulating a dosage range that is not toxic for use in human. The dosage of such compounds lies within a range of circulating concentrations that include the ED50 with little or no toxicity. The dosage can vary within this range depending upon the dosage form employed and the route of administration utilized. The exact formulation, route of administration and dosage can be chosen by the individual physician in view of the patient's condition. (See, e.g., Fingl et al., 1975, In: The Pharmacological Basis of Therapeutics, Ch. 1, p. 1). One of the advantages, among others, of using the AB129-type compounds and analogs described herein to treat disease, e.g., lung cancer or colon cancer is their lack of toxicity.

Positions count from the first letter of the chain named. Values joined by “and” are separate entries in the source; they are usually repeats but may differ in a detail not shown here. Equal entries are not always repeated. “Also recorded” adds a separate entry of the source. Where two headings read alike, the source gives them in different places.

Chain of c-Fyn-wt (P06241 whole entry): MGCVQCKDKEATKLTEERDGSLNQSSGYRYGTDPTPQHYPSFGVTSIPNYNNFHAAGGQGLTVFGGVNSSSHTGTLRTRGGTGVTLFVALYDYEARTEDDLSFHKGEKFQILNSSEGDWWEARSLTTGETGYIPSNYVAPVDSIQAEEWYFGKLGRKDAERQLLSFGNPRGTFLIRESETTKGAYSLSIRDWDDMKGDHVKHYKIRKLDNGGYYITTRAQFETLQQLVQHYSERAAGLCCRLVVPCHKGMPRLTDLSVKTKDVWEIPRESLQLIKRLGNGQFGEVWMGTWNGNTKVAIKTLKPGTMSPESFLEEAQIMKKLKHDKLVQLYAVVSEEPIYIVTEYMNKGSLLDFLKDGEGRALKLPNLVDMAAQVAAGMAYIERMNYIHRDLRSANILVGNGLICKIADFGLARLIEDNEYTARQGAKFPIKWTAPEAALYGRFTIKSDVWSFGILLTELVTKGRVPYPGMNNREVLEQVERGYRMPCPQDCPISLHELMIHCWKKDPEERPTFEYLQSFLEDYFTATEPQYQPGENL

One may read the IC50 as the concentration that gives 50% inhibition. By Ki is commonly meant a dissociation constant, usually derived from enzyme kinetics or from competition with a known ligand. With `CC(C)(C)n1nc(-c2cccc(O)c2)c2c(N)ncnc21` [AB129], in data set [1], the “loss of viability of A549 cells” value was determined as 15%. In addition, in data set [2], the “production of cardiotoxic metabolite daunorubicinol from daunorubicin” value is given as “able to block production”. Also, in data set [3], the “sensitivity of N90V mutant CBR1 versus wild type CBR1” value was “less sensitive”. In data set [4], the “A549 cells in G2/M phase” value is on record as “approximately 12%”. Besides, the IC50 on c-Fyn-wt (Table 1, read-out: IC50 anti-c-Fyn-wt) is 8 nM; at c-Fyn-wt (read-out: anti-Fyn IC50) it was 10 nM; in data set [5] (FIG. 5, read-out: IC50, CBR1 catalyzed reduction of menadione by NADPH), roughly 5000 nM; in data set [5] (Table 1, read-out: IC50 anti-hCBR1), 790 nM. Moreover, the Ki in data set [5] (NADPH competitive) was 400 nM and 300 to 400 nM. Also, the “mode of inhibition of CBR1” value in data set [5] (with respect to NADPH) is listed as “pure NADPH competitive inhibitor”. For the same compound, the “cell killing in human lung cancer cell line A549” value in data set [6] is reported as “mild to severe cell killing; also recorded: most potent A549 cell killing response”. Further, in “i.v. serum half-life”, the half-life lay within 2 to 2.5 h.
